Data reported in patent publication US11299461B2 (priority 2018, dated 2022).
pKi: −log10 of the molar value.

Molecular target: LF 263-C catalytic domain (anthrax lethal factor) (Bacillus anthracis, UniProt P15917)
Assay: biochemical

Chain of LF 263-C catalytic domain (anthrax lethal factor) (P15917 296-809 limits assumed): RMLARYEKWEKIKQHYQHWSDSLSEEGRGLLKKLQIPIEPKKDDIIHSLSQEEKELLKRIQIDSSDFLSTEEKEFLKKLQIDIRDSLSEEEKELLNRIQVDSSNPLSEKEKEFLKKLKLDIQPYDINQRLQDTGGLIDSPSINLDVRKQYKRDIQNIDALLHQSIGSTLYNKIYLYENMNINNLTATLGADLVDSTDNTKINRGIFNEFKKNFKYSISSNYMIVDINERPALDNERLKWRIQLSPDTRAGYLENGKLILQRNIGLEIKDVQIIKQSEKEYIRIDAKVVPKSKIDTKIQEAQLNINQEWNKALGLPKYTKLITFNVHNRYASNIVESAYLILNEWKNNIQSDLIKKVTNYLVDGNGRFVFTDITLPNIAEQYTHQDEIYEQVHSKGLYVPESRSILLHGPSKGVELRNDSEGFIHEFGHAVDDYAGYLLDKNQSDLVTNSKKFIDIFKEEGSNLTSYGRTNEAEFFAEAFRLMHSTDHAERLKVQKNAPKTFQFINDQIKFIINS

Compound	pKi
Cc1cc(C[C@H](CCCCN[C@H](c2ccc(F)cn2)C(C)C)C(=O)NO)cc(C)c1F [Compound 26, (S)-2-(4-fluoro-3,5-dimethylbenzyl)-6-(((S)-1-(5-fluoropyridin-2-yl)-2-methylpropyl)amino)-N-hydroxyhexanamide]	9.06
Cc1cc(C[C@H](CCCCN[C@H](C)c2ccc(Cl)cn2)C(=O)NO)cc(C)c1F [Compound 27, (S)-6-(((R)-1-(5-chloropyridin-2-yl)ethyl)amino)-2-(4-fluoro-3,5-dimethylbenzyl)-N-hydroxyhexanamide]	10.10
CC[C@@H](NCCCC[C@@H](Cc1cc(C)c(F)c(C)c1)C(=O)NO)c1ccc(F)cn1 [Compound 28, (S)-2-(4-fluoro-3,5-dimethylbenzyl)-6-(((R)-1-(5-fluoropyridin-2-yl)propyl)amino)-N-hydroxyhexanamide]	10.10
Cc1cc(C[C@H](CCCCN(C)Cc2ccc(F)cn2)C(=O)NO)cc(Cl)c1F [Compound 29, (S)-2-(3-chloro-4-fluoro-5-methylbenzyl)-6-(((5-fluoropyridin-2-yl)methyl)(methyl)amino)-N-hydroxyhexanamide]	8.96
Cc1cc(C[C@H](CCCCN[C@@H](c2ccc(F)cn2)C(C)C)C(=O)NO)cc(Cl)c1F [Compound 30, (S)-2-(3-chloro-4-fluoro-5-methylbenzyl)-6-(((R)-1-(5-fluoropyridin-2-yl)-2-methylpropyl)amino)-N-hydroxyhexanamide]	9.60
Cc1cc(C[C@H](CCCCN[C@@H](c2ccc(Cl)cn2)C(C)C)C(=O)NO)cc(Cl)c1F [Compound 31, (S)-2-(3-chloro-4-fluoro-5-methylbenzyl)-6-(((R)-1-(5-chloropyridin-2-yl)-2-methylpropyl)amino)-N-hydroxyhexanamide]	9.59
COc1ccc(CN(C)CCCC[C@@H](Cc2cc(C)c(F)c(Cl)c2)C(=O)NO)nc1 [Compound 32, (S)-2-(3-chloro-4-fluoro-5-methylbenzyl)-N-hydroxy-6-(((5-methoxypyridin-2-yl)methyl)(methyl)amino)hexanamide]	8.82
CN(CCCC[C@@H](Cc1cc(Cl)c(F)c(Cl)c1)C(=O)NO)Cc1ccc(F)cn1 [Compound 33, (S)-2-(3,5-dichloro-4-fluorobenzyl)-6-(((5-fluoropyridin-2-yl)methyl)(methyl)amino)-N-hydroxyhexanamide]	8.80
CC(C)[C@@H](NCCCC[C@@H](Cc1cc(Cl)c(F)c(Cl)c1)C(=O)NO)c1ccc(F)cn1 [Compound 34, (S)-2-(3,5-dichloro-4-fluorobenzyl)-6-(((R)-1-(5-fluoropyridin-2-yl)-2-methylpropyl)amino)-N-hydroxyhexanamide]	9.22
CC(C)[C@@H](NCCCC[C@@H](Cc1cc(Cl)c(F)c(Cl)c1)C(=O)NO)c1ccc(Cl)cn1 [Compound 35, (S)-6-(((R)-1-(5-chloropyridin-2-yl)-2-methylpropyl)amino)-2-(3,5-dichloro-4-fluorobenzyl)-N-hydroxyhexanamide]	9.38
Cc1cc(C[C@H](CCCCN[C@@H](c2ccc(F)cn2)C(C)C)C(=O)NO)cc(F)c1F [Compound 36, (S)-2-(3,4-difluoro-5-methylbenzyl)-6-(((R)-1-(5-fluoropyridin-2-yl)-2-methylpropyl)amino)-N-hydroxyhexanamide]	9.14
Cc1cc(C[C@H](CCCCN[C@@H](c2ccc(Cl)cn2)C(C)C)C(=O)NO)cc(F)c1F [Compound 37, (S)-6-(((R)-1-(5-chloropyridin-2-yl)-2-methylpropyl)amino)-2-(3,4-difluoro-5-methylbenzyl)-N-hydroxyhexanamide]	9.06
COc1ccc(CN(C)CCCC[C@@H](Cc2cc(C)c(F)c(F)c2)C(=O)NO)nc1 [Compound 38, (S)-2-(3,4-difluoro-5-methylbenzyl)-N-hydroxy-6-(((5-methoxypyridin-2-yl)methyl)(methyl)amino)hexanamide]	8.31
CO[C@H](C[C@H](CCCCN[C@H](CO)c1ccc(F)cn1)C(=O)NO)c1ccc(F)cc1 [Compound 39, (S)-2-((R)-2-(4-fluorophenyl)-2-methoxyethyl)-6-(((S)-1-(5-fluoropyridin-2-yl)-2-hydroxyethyl)amino)-N-hydroxyhexanamide]	8.77
CCN(CCCC[C@@H](C[C@@H](OC)c1ccc(F)cc1)C(=O)NO)Cc1ccc(Cl)cn1 [Compound 40, (S)-6-(((5-chloropyridin-2-yl)methyl)(ethyl)amino)-2-((R)-2-(4-fluorophenyl)-2-methoxyethyl)-N-hydroxyhexanamide]	8.35
CO[C@H](C[C@H](CCCCNCc1ccc(Cl)cn1)C(=O)NO)c1ccc(F)cc1 [Compound 41, (S)-6-(((5-chloropyridin-2-yl)methyl)amino)-2-((R)-2-(4-fluorophenyl)-2-methoxyethyl)-N-hydroxyhexanamide]	8.66
CO[C@H](C[C@H](CCCCN(C)Cc1ccc(Cl)cn1)C(=O)NO)c1ccc(F)cc1 [Compound 42, (S)-6-(((5-chloropyridin-2-yl)methyl)(methyl)amino)-2-((R)-2-(4-fluorophenyl)-2-methoxyethyl)-N-hydroxyhexanamide]	8.52

Compound	pKi
CO[C@H](C[C@H](CCCCN(C)Cc1ccc(Br)cn1)C(=O)NO)c1ccc(F)cc1 [Compound 43, (S)-6-(((5-bromopyridin-2-yl)methyl)(methyl)amino)-2-((R)-2-(4-fluorophenyl)-2-methoxyethyl)-N-hydroxyhexanamide]	7.90
CCc1cc(Cl)cnc1CN(C)CCCC[C@@H](C[C@@H](OC)c1ccc(F)cc1)C(=O)NO [Compound 44, (S)-6-(((5-chloro-3-ethylpyridin-2-yl)methyl)(methyl)amino)-2-((R)-2-(4-fluorophenyl)-2-methoxyethyl)-N-hydroxyhexanamide]	8.17
CO[C@H](C[C@H](CCCCN(C)Cc1cccc(C)n1)C(=O)NO)c1ccc(F)cc1 [Compound 45, (S)-2-((R)-2-(4-fluorophenyl)-2-methoxyethyl)-N-hydroxy-6-(methyl((6-methylpyridin-2-yl)methyl)amino)hexanamide]	7.80
CO[C@H](C[C@H](CCCCN(C)Cc1cc(C)ccn1)C(=O)NO)c1ccc(F)cc1 [Compound 46, (S)-2-((R)-2-(4-fluorophenyl)-2-methoxyethyl)-N-hydroxy-6-(methyl((4-methylpyridin-2-yl)methyl)amino)hexanamide]	7.85
CO[C@H](C[C@H](CCCCN(CCO)Cc1ncc(F)cc1Cl)C(=O)NO)c1ccc(F)cc1 [Compound 47, (S)-6-(((3-chloro-5-fluoropyridin-2-yl)methyl)(2-hydroxyethyl)amino)-2-((R)-2-(4-fluorophenyl)-2-methoxyethyl)-N-hydroxyhexanamide]	7.27
CO[C@H](C[C@H](CCCCN[C@@H](c1ccc(F)cn1)C(C)C)C(=O)NO)c1ccc(F)cc1 [Compound 48, (S)-2-((R)-2-(4-fluorophenyl)-2-methoxyethyl)-6-(((R)-1-(5-fluoropyridin-2-yl)-2-methylpropyl)amino)-N-hydroxyhexanamide]	9.21
COc1ccc([C@H](NCCCC[C@@H](C[C@@H](OC)c2ccc(F)cc2)C(=O)NO)C(C)C)nc1 [Compound 49, (S)-2-((R)-2-(4-fluorophenyl)-2-methoxyethyl)-N-hydroxy-6-(((R)-1-(5-methoxypyridin-2-yl)-2-methylpropyl)amino)hexanamide]	8.57
CO[C@H](C[C@H](CCCCN[C@@H](c1ccc(F)c(C)n1)C(C)C)C(=O)NO)c1ccc(F)cc1 [Compound 50, (S)-6-(((R)-1-(5-fluoro-6-methylpyridin-2-yl)-2-methylpropyl)amino)-2-((R)-2-(4-fluorophenyl)-2-methoxyethyl)-N-hydroxyhexanamide]	8.57
CO[C@H](C[C@H](CCCCN[C@@H](c1ccc(Cl)cn1)C(C)C)C(=O)NO)c1ccc(F)cc1 [Compound 51, (S)-6-(((R)-1-(5-chloropyridin-2-yl)-2-methylpropyl)amino)-2-((R)-2-(4-fluorophenyl)-2-methoxyethyl)-N-hydroxyhexanamide]	9.27
CO[C@H](C[C@H](CCCCN[C@@H](c1ncc(F)cc1F)C(C)C)C(=O)NO)c1ccc(F)cc1 [Compound 52, (S)-6-(((R)-1-(3,5-difluoropyridin-2-yl)-2-methylpropyl)amino)-2-((R)-2-(4-fluorophenyl)-2-methoxyethyl)-N-hydroxyhexanamide]	8.68
CO[C@H](C[C@H](CCCCN[C@@H](c1ncc(Cl)cc1Cl)C(C)C)C(=O)NO)c1ccc(F)cc1 [Compound 53, (S)-6-(((R)-1-(3,5-dichloropyridin-2-yl)-2-methylpropyl)amino)-2-((R)-2-(4-fluorophenyl)-2-methoxyethyl)-N-hydroxyhexanamide]	8.21
CC[C@@H](NCCCC[C@@H](C[C@@H](OC)c1ccc(F)cc1)C(=O)NO)c1ncc(Cl)cc1Cl [Compound 54, (S)-6-(((R)-1-(3,5-dichloropyridin-2-yl)propyl)amino)-2-((R)-2-(4-fluorophenyl)-2-methoxyethyl)-N-hydroxyhexanamide]	8.62
CO[C@H](C[C@H](CCCCN[C@H](C)c1ccc(Cl)cn1)C(=O)NO)c1ccc(F)cc1 [Compound 55, (S)-6-(((R)-1-(5-chloropyridin-2-yl)ethyl)amino)-2-((R)-2-(4-fluorophenyl)-2-methoxyethyl)-N-hydroxyhexanamide]	8.80
CC[C@@H](NCCCC[C@@H](C[C@@H](OC)c1ccc(F)cc1)C(=O)NO)c1ccc(Cl)cn1 [Compound 56, (S)-6-(((R)-1-(5-chloropyridin-2-yl)propyl)amino)-2-((R)-2-(4-fluorophenyl)-2-methoxyethyl)-N-hydroxyhexanamide]	9.10
CCN(CCCC[C@@H](C[C@@H](OC)c1ccc(F)c(C)c1)C(=O)NO)Cc1ccc(Cl)cn1 [Compound 57, (S)-6-(((5-chloropyridin-2-yl)methyl)(ethyl)amino)-2-((R)-2-(4-fluoro-3-methylphenyl)-2-methoxyethyl)-N-hydroxyhexanamide]	8.55
CO[C@H](C[C@H](CCCCN[C@@H](c1ccc(Cl)cn1)C(C)C)C(=O)NO)c1ccc(F)c(C)c1 [Compound 58, (S)-6-(((R)-1-(5-chloropyridin-2-yl)-2-methylpropyl)amino)-2-((R)-2-(4-fluoro-3-methylphenyl)-2-methoxyethyl)-N-hydroxyhexanamide]	8.64
